Measurements from patent US20260053811A1, “METHODS OF TREATING HYPERTENSION IN OBESE SUBJECTS” (Mineralys Therapeutics, Inc., priority 2022, published 2026).

Tested on: hypertensive subjects
Assay: Seated automated office blood pressure (AOBP) in randomized, placebo-controlled, dose-ranging study
Format: in vivo, human
Conditions: for Placebo-adjusted reduction in AOBP SBP, exploratory MMRM analysis by BMI: data not shown; for Mean (SD) Automated Office-Measured Systolic Blood Pressure at Wk 8 / Mean (SD) Change from Baseline at Week 8 in Automated Office-Measured Systolic Blood Pressure / Mean (SD) Automated Office-Measured Diastolic Blood Pressure at Wk 8 / Mean (SD) Change from Baseline at Week 8 in Automated Office-Measured Diastolic Blood Pressure: Part 1, 12.5 mg BID
Description: A randomized, double-blinded, placebo-controlled, dose-ranging, multicenter study was conducted to evaluate the effect of orally administered Compound A HBr on blood pressure for the treatment of hypertension in male and female subjects ≥18 years of age.
The study consists of two parts. For enrollment into Part 1 of the study, a subject's value of plasma renin activity (PRA) must be ≤1 ng/mL/h based on morning measurement. If the value of PRA >1 ng/mL/h based on morning measurement, then subjects may be eligible to enter Part 2 of the study.
For Part 1, 163 enrolled subjects ≥18 years of age were randomized into 6 equal treatment groups (1:1:1:1:1:1) to 12.5 mg BID, 25 mg BID, 12.5 mg QD, 50 mg QD, 100 mg QD, or placebo. After a review of interim clinical data, the 2 lowest dose levels (12.5 mg QD and 12.5 mg BID) were stopped for future randomization due to a lack of consistent meaningful reduction of blood pressure, but the patients randomized to that point remained in the study through completion. Thus, after the review of interim clinical data, subjects were randomized into 4 equal treatment groups (1:1:1:1) to 25 mg BID, 50 mg QD, 100 mg QD, or placebo.
For Part 2, 36 enrolled subjects ≥18 years of age were randomized (5:1) to either 100 mg QD Compound A HBr or placebo such that the Compound A HBr treatment group consisted of approximately 30 subjects and the placebo treatment group will consist of approximately 6 subjects.
Subjects orally administered the assigned study drug (Compound A HBr or placebo) according to the assigned dosing regimen for 8 weeks beginning on Study Day 1. All subjects in Part 1 (regardless of dosing group) received BID dosing to preserve the integrity of the blind; active drug is administered as the morning dose for all QD dose groups. Subjects returned to the research facility or were seen by the clinical investigator or approved home health care professional at the end of Study Weeks 1, 2, 3, 4, 5, 6, 7, and 8 (±2 days) for protocol-defined efficacy and safety assessments and procedures, assessment of adverse events (AEs), and confirmation of compliance with study drug usage. Subjects also completed a telephone visit and blood pressure (BP) check at home approximately 3 days post last dose of study drug. Subjects attended up to 14 full clinic visits, including a pre-Screening visit, a Screening/start of Placebo Run-in visit, a second visit during Placebo Run-in, a clinic visit to initiate the ABPM procedure, a Randomization visit, 8 weekly visits during double-blind treatment, and an end-of-study visit scheduled 4 weeks after the last study treatment for final efficacy and safety assessments.
An automated oscillometric sphygmomanometer device was used to measure the subjects' systolic and diastolic blood pressure in office after approximately 5 minutes of rest in the seated position.
The primary endpoint is the change in office-measured (mean of last 2 of 5 unattended measurements using an automated oscillometric sphygmomanometer device after approximately 5 minutes of rest in the seated position) systolic blood pressure (SBP) from baseline to the end of Study Week 8.
Secondary endpoints of this study were: • (a) Change in 24-hour ambulatory blood pressure monitoring (ABPM) parameters (systolic and diastolic) from baseline to the end of Study Week 7. • (b) Change in office-measured SBP from baseline to the end of Study Weeks 1, 2, 3, 4, 5, 6, and 7. • (c) Change in office-measured diastolic blood pressure (DBP) from baseline to the end of Study Weeks 1, 2, 3, 4, 5, 6, 7, and 8. • (d) Proportion of subjects who achieve office-measured BP of ≤130/80 mm Hg by the end of Study Week 8.

Structure (SMILES): CC(=O)N[C@H]1CC[C@H](NC(=O)CN2CCN(c3nncc(-c4ccc(C)cc4)n3)CC2)CC1 [Compound A HBr]
- Subjects with seated AOBP SBP/DBP ≤130/80 mmHg: No (100 mg QD, Week 8, Part 2, FAS): 14 (45.2) n (%)
- Subjects with seated AOBP SBP/DBP ≤130/80 mmHg: Yes (100 mg QD, Week 8, Part 2, FAS): 17 (54.8) n (%)
- Placebo-adjusted reduction in AOBP SBP, exploratory MMRM analysis by BMI (Part 1 50 mg QD cohort): −16.7 mmHg
- Placebo-adjusted reduction in AOBP SBP, exploratory MMRM analysis by BMI (Part 1 100 mg QD cohort): −12.3 mmHg
- Mean (SD) Automated Office-Measured Systolic Blood Pressure at Wk 8 (ACEi/ARB No): 131.50 (16.22) mmHg
- Mean (SD) Change from Baseline at Week 8 in Automated Office-Measured Systolic Blood Pressure (ACEi/ARB No): −18.75 (21.77) mmHg
- Mean (SD) Automated Office-Measured Systolic Blood Pressure at Wk 8 (ACEi/ARB Yes): 132.00 (12.59) mmHg
- Mean (SD) Change from Baseline at Week 8 in Automated Office-Measured Systolic Blood Pressure (ACEi/ARB Yes): −12.47 (17.09) mmHg
- Mean (SD) Automated Office-Measured Diastolic Blood Pressure at Wk 8 (ACEi/ARBs No): 76.25 (12.37) mmHg
- Mean (SD) Change from Baseline at Week 8 in Automated Office-Measured Diastolic Blood Pressure (ACEi/ARBs No): −4.00 (8.79) mmHg
- Mean (SD) Automated Office-Measured Diastolic Blood Pressure at Wk 8 (ACEi/ARBs Yes): 74.93 (9.86) mmHg
- Mean (SD) Change from Baseline at Week 8 in Automated Office-Measured Diastolic Blood Pressure (ACEi/ARBs Yes): −6.33 (9.02) mmHg
- Mean (SD) Automated Office-Measured Diastolic Blood Pressure at Wk 8 (AHTs 2): 79.67 (11.78) mmHg
- Mean (SD) Automated Office-Measured Systolic Blood Pressure at Wk 8 (AHTs 2): 136.33 (11.76) mmHg
- Mean (SD) Change from Baseline at Week 8 in Automated Office-Measured Diastolic Blood Pressure (AHTs 2): −5.25 (7.78) mmHg
- Mean (SD) Change from Baseline at Week 8 in Automated Office-Measured Systolic Blood Pressure (AHTs 2): −8.33 (13.28) mmHg
- Mean (SD) Automated Office-Measured Diastolic Blood Pressure at Wk 8 (AHTs ≥3): 73.15 (8.93) mmHg
- Mean (SD) Automated Office-Measured Systolic Blood Pressure at Wk 8 (AHTs ≥3): 129.85 (13.37) mmHg
- Mean (SD) Change from Baseline at Week 8 in Automated Office-Measured Diastolic Blood Pressure (AHTs ≥3): −6.12 (9.49) mmHg
- Mean (SD) Change from Baseline at Week 8 in Automated Office-Measured Systolic Blood Pressure (AHTs ≥3): −16.31 (19.35) mmHg
- Mean (SD) Automated Office-Measured Diastolic Blood Pressure at Wk 8 (Age 65-79 yr): 76.18 (7.87) mmHg
- Mean (SD) Automated Office-Measured Systolic Blood Pressure at Wk 8 (Age 65-79 yr): 135.73 (11.26) mmHg
- Mean (SD) Change from Baseline at Week 8 in Automated Office-Measured Diastolic Blood Pressure (Age 65-79 yr): −3.18 (7.91) mmHg
- Mean (SD) Change from Baseline at Week 8 in Automated Office-Measured Systolic Blood Pressure (Age 65-79 yr): −12.77 (19.08) mmHg
- Mean (SD) Automated Office-Measured Diastolic Blood Pressure at Wk 8 (Age <65 yr): 79.17 (9.58) mmHg
- Mean (SD) Automated Office-Measured Systolic Blood Pressure at Wk 8 (Age <65 yr): 132.17 (11.13) mmHg
- Mean (SD) Change from Baseline at Week 8 in Automated Office-Measured Diastolic Blood Pressure (Age <65 yr): −5.67 (5.02) mmHg
- Mean (SD) Change from Baseline at Week 8 in Automated Office-Measured Systolic Blood Pressure (Age <65 yr): −6.92 (7.84) mmHg
- Mean (SD) Automated Office-Measured Diastolic Blood Pressure at Wk 8 (Age ≥80 yr): 58.00 (7.07) mmHg
- Mean (SD) Automated Office-Measured Systolic Blood Pressure at Wk 8 (Age ≥80 yr): 110.00 (1.41) mmHg
- Mean (SD) Change from Baseline at Week 8 in Automated Office-Measured Diastolic Blood Pressure (Age ≥80 yr): −21.00 (9.90) mmHg
- Mean (SD) Change from Baseline at Week 8 in Automated Office-Measured Systolic Blood Pressure (Age ≥80 yr): −40.00 (4.24) mmHg
- Mean (SD) Automated Office-Measured Diastolic Blood Pressure at Wk 8 (BMI 25−30 kg/m^2): 71.75 (9.07) mmHg
- Mean (SD) Change from Baseline at Week 8 in Automated Office-Measured Diastolic Blood Pressure (BMI 25−30 kg/m^2): −8.00 (7.56) mmHg
- Mean (SD) Automated Office-Measured Diastolic Blood Pressure at Wk 8 (BMI <25 kg/m^2): 92.00 (NE) mmHg
- Mean (SD) Change from Baseline at Week 8 in Automated Office-Measured Diastolic Blood Pressure (BMI <25 kg/m^2): 6.00 (NE) mmHg
- Mean (SD) Automated Office-Measured Diastolic Blood Pressure at Wk 8 (BMI >30 kg/m^2): 75.00 (9.80) mmHg
- Mean (SD) Change from Baseline at Week 8 in Automated Office-Measured Diastolic Blood Pressure (BMI >30 kg/m^2): −6.07 (9.01) mmHg
- Mean (SD) Automated Office-Measured Systolic Blood Pressure at Wk 8 (BMI at baseline 25-30 kg/m^2): 125.50 (14.89) mmHg
- Mean (SD) Change from Baseline at Week 8 in Automated Office-Measured Systolic Blood Pressure (BMI at baseline 25-30 kg/m^2): −23.88 (24.55) mmHg
- Mean (SD) Automated Office-Measured Systolic Blood Pressure at Wk 8 (BMI at baseline <25 kg/m^2): 150.00 (NE) mmHg
- Mean (SD) Change from Baseline at Week 8 in Automated Office-Measured Systolic Blood Pressure (BMI at baseline <25 kg/m^2): 2.50 (NE) mmHg
- Mean (SD) Automated Office-Measured Systolic Blood Pressure at Wk 8 (BMI at baseline >30 kg/m^2): 132.43 (11.93) mmHg
- Mean (SD) Change from Baseline at Week 8 in Automated Office-Measured Systolic Blood Pressure (BMI at baseline >30 kg/m^2): −12.07 (15.48) mmHg
- Mean (SD) Automated Office-Measured Diastolic Blood Pressure at Wk 8 (Race Black or AA): 79.14 (8.49) mmHg
- Mean (SD) Automated Office-Measured Systolic Blood Pressure at Wk 8 (Race Black or AA): 137.71 (13.50) mmHg
